Data set [1] concerns PrP^Sc in dividing ScN2a-cl3 cells. Description: cells. The class given is cell-based, mouse. Particulars: for EC50: Mus musculus.
Another data set is described as follows: in vitro. Particulars: mouse.
The subject of data set [2] is PrP^Sc in stationary-phase ScN2a-cl3 cells. It counts as cell-based, mouse.
The next data set can be described thus: in vivo. Particulars: female, FVB, mouse, po, 10 mg/kg, Cmax ± SD.
The next data set deals with PrP^Sc in dividing cells. Particulars: cited from earlier work.
Data set [3] has as its system PrP^Sc in stationary-phase cells. Particulars: cited from earlier work.
Setting [4] is: read-out: EC50 in dividing cells (text and footnote).

Like-named read-outs stand apart in the source and are kept apart here. Marks after values point to notes of the source that are not given here. Bounds are passed on as bounds.

On to `CN1CCc2cccc3c2[C@H]1Cc1ccc(O)c(O)c1-3` [Apomorphine, reference compound], for which the concentration giving a half-maximal response (EC50) (as a rule, the concentration needed to bring the measured effect to its halfway point) in data set [1] (read-out: EC50 ± SEM (antiprion activity by ELISA)) is more than 10 µM. In the case of `COc1ccccc1OCCNCC(O)COc1cccc2[nH]c3ccccc3c12` (stereo not shown) [Carvedilol], in the data set “in vitro”, the CC50 fell in the range of 5 to 6.1 µM. In the case of `Nc1c(/N=N/c2ccc(-c3ccc(/N=N/c4cc(S(=O)(=O)[O-])c5ccccc5c4N)cc3)cc2)cc(S(=O)(=O)[O-])c2ccccc12.[Na+].[Na+]` [Congo Red, reference compound], the “effect on cell viability” value with dividing ScN2a-cl3 cells is on record as “no effects on cell viability”. In addition, the “antiprion potency in dividing cells” value in data set [1] was “good potency”. Also, in data set [1] (setting [4]), the EC50 was approximately 0.4 µM. For `CCOc1ccc(/N=N/c2ccc(N)cc2N)cc1` [Ethoxazine], the CC50 in the data set on dividing ScN2a-cl3 cells is more than 10 µM. With `CC(NCCC(c1ccccc1)c1ccccc1)c1ccccc1` (stereo not shown) [Fendiline], the EC50 in “in vitro” fell in the range of 4.3 to 9.6 µM. As for `Cc1ccc2[nH]c3c(c2c1)CCCC3NCCCN(C)C` (stereo not shown) [IND23308], the “effect on cell viability” value in the data set with dividing ScN2a-cl3 cells is given as “no effect on cell viability”. Also, in data set [2], the “Reduction (%) Stationary PrP^Sc” value was 94 ^c % and the “percent reduction in PrP^Sc in the HTS” value is 70%.

Turning to `c1cncc(-c2nc(-c3c[nH]c4ccccc34)cs2)c1` [IND24350], the EC50 in data set [1] (setting [4]) is less than 1 µM. In the case of `CC(=O)c1ccc(NC(=O)c2sc3nc4c(cc3c2N)CCCC4)cc1` [IND24609], in data set [1], the “antiprion potency in dividing cells” value was “inactive”. On to `COc1ccc(-c2cc(-c3ccc(OC)cc3O)[nH]n2)cc1` [IND25807], for which the EC50 in data set [1] (setting [4]) is less than 1 µM. On the same count and under the same terms, under `Cn1c(=N)n(CC(=O)c2ccc(Cl)cc2)c2ccccc21` [IND26326] stands more than 1 µM; under `CCOc1ccc(NC(=O)c2cc3ccccc3cc2O)cc1` [IND31751], less than 1 µM; under `COc1ccc(C(=O)Nc2ccc(-c3csc(C)n3)cc2)cc1` [IND33145], less than 1 µM. For `OCCNCc1cc(Br)ccc1OCc1ccc(Cl)cc1Cl` [IND34452], the concentration for a half-maximal effect (EC50) in data set [1] (setting [4]) was more than 1 µM. Consider `CN(C)CCNc1nc(-c2ccc(Cl)cc2)nc2ccccc12` [IND34921], for which the EC50 in data set [1] (setting [4]) was more than 1 µM. With `COc1cccc(Nc2nc(N)c3ccccc3n2)c1` [IND35916], the concentration giving a half-maximal response (EC50) in data set [1] (setting [4]) was more than 1 µM. For the compound `COc1ccc(CCNC(=O)c2sc3nc(-c4cccs4)ccc3c2N)cc1OC` [IND42103], the “antiprion potency in dividing cells” value in data set [1] is “inactive”.

With `COc1cc(N)c(-c2ccc3cc(OC)c(OC)cc3n2)cc1OC` [IND44355], in data set [1] (setting [4]), the EC50 is more than 1 µM. As to `Cn1c(=N)n(CC(=O)c2ccc(Br)cc2)c2ccccc21` [IND44723], in data set [1] (setting [4]), the EC50 was more than 1 µM. In the case of `CN1CCN(c2ccc(Nc3ccnc4cc(Cl)ccc34)cc2)CC1` [IND45193], the concentration giving a half-maximal response (EC50) in data set [1] (setting [4]) was more than 1 µM. Further, the values for the Cmax in the data set “in vivo” (brain) and in the data set “in vivo” (plasma) were 1610 ± 230 nM and 130 ± 10 nM, respectively. `COc1cc(CNCCO)cc(Br)c1OCc1ccccc1Cl` [IND46380]: the EC50 in data set [1] (setting [4]) is more than 1 µM. With `COc1ccc2cc3c(N)c(C(=O)Nc4ccc(C(C)=O)cc4)sc3nc2c1` [IND52025], in data set [1] (setting [4]), the concentration giving a half-maximal response (EC50) was less than 1 µM. In the case of `N#Cc1sc2nc(-c3ccc4c(c3)OCO4)ccc2c1N` [IND52851], the figures for the Cmax in the data set “in vivo” (brain) and in the data set “in vivo” (plasma) were 1020 ± 710 nM and 410 ± 250 nM, respectively. In the case of `COc1ccc(-c2nc3cc(NC(=O)c4ccc(OCc5ccccc5)cc4)ccc3o2)cc1` [IND114202], the EC50 in data set [1] (setting [4]) is less than 1 µM.

In the data set with dividing ScN2a-cl3 cells, `COc1ccc2cc1Oc1ccc(cc1)C[C@H]1c3cc(c(OC)cc3CCN1C)Oc1c(OC)c(OC)cc3c1[C@H](C2)N(C)CC3` [Tetrandine] had a CC50 of 5 to 6.1 µM. On to `CCN(CC)CCCC(C)Nc1c2ccc(Cl)cc2nc2ccc(OC)cc12` (stereo not shown) [quinacrine], for which the “activity in dividing cells” value with PrP^Sc in dividing cells is “rapidly cleared”. Moreover, the “activity in stationary-phase cells” value in data set [3] is listed as “relatively ineffective”. Take Dextran [reference compound]: in data set [1], the “EC50 ± SEM (antiprion activity by ELISA)” value is on record as 0.40 ± 0.08 (mg/L) and the “antiprion potency in dividing cells” value is “good potency”. Turning to Enoxaparin [reference compound], the “LC50 ± SEM (cell viability by calcein)” value in the data set on dividing ScN2a-cl3 cells is on record as >10 (mg/L). The “EC50 ± SEM (antiprion activity by ELISA)” value in data set [1] is >10 (mg/L).

The values are drawn from paper PMC3984054 (Bioorganic & medicinal chemistry, 2013).
